What was measured:
Type in all cases: biochemical
[1] = target: T1, recombinant alpha-glucosidase II (murine full-length glucosidase II, alpha and beta subunits, Glu 2) (Mus musculus, UniProt Q8BHN3); assay: Alpha-glucosidase II assay (4-methylumbelliferyl-alpha-D-pyranoside substrate, fluorescence); settings: Glucosidase 2; read-out: Glu2 IC50
T1 construct: made in house; host or cells: HEK-293T cells transduced with BacMam viruses (75% alpha, 25% beta); protein harvested from culture supernatant
T1 sequence (O08795 15-521): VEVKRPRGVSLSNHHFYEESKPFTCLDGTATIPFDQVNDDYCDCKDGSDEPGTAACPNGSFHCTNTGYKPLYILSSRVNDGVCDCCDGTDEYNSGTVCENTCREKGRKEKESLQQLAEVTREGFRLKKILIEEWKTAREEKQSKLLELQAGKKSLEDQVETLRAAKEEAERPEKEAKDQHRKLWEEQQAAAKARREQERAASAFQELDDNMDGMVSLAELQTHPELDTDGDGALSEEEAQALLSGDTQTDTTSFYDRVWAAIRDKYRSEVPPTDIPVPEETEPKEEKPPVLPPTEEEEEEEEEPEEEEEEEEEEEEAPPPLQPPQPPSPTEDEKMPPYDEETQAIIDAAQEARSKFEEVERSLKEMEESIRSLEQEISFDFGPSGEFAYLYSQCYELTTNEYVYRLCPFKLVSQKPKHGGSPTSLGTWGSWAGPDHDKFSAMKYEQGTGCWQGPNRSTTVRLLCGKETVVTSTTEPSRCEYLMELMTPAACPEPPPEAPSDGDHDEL
T1 sequence (Q8BHN3 33-944): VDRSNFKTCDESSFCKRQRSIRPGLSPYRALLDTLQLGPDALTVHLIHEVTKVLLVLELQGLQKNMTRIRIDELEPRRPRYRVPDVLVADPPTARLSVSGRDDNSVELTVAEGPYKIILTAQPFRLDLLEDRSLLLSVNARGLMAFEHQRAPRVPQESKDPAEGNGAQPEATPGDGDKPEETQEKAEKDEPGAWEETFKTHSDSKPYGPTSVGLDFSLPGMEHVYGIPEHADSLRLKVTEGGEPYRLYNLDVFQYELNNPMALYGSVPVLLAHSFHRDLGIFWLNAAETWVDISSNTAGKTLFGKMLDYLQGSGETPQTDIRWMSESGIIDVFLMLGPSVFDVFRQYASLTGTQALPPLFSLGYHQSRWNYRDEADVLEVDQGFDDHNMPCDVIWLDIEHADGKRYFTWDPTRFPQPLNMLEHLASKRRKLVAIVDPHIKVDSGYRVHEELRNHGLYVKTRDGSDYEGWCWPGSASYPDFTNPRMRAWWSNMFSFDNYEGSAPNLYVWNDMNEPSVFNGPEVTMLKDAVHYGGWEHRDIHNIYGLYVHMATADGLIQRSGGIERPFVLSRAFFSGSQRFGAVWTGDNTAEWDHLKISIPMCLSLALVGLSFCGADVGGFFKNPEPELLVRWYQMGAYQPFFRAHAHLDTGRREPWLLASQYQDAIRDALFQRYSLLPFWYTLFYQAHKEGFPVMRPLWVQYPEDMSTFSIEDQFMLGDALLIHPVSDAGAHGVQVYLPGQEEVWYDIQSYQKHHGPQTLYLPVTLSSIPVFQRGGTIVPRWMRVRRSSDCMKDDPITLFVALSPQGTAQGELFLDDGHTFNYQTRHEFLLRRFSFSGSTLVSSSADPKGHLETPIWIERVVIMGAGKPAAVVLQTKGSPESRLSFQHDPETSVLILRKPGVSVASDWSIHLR

[2] = target: recombinant human GAA (acid alpha-glucosidase) (Homo sapiens, UniProt P10253); assay: Acid alpha-glucosidase (GAA) assay (4-methylumbelliferyl-alpha-D-pyranoside substrate, fluorescence)
In short: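 Recombinant human enzyme preincubated 60 min at 37 °C with compound dilutions, then 4-methylumbelliferyl-alpha-D-pyranoside substrate added for 20 min at 37 °C. Stopped with glycine/NaOH pH 10; methylumbelliferone fluorescence (ex 365, em 440 nm) versus untreated enzyme; IC50 by 4-PL fit.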

[3] = target: T2, recombinant human GBA (beta-glucocerebrosidase) (Homo sapiens, UniProt P04062); assay: Beta-glucocerebrosidase (GBA, glucosylceramidase) assay (4-methylumbelliferyl-beta-D-pyranoside substrate, fluorescence)
T2 sequence (P04062 40-536): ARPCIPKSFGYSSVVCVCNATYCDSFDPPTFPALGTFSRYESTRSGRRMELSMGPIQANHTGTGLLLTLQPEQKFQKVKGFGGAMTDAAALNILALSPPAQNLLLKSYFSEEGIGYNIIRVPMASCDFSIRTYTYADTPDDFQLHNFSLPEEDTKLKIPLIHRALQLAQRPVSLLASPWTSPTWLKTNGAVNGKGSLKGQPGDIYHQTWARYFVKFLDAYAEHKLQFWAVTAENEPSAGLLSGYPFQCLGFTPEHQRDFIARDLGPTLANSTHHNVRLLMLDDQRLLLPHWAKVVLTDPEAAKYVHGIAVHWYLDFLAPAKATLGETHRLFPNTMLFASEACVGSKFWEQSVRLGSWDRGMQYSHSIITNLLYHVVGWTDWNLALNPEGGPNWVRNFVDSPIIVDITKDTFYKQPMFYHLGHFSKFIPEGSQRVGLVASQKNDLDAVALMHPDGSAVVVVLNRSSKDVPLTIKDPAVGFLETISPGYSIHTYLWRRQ
In short: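 Recombinant human GBA preincubated with compound dilutions 60 min at 37 °C, then 4-methylumbelliferyl-beta-D-pyranoside added for 60 min at 37 °C. Stopped at pH 10 (glycine/NaOH); fluorescence ex 365/em 440 nm. IC50 from 4-PL fit of inhibition relative to untreated enzyme.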

[4] = target: rat maltase (partially purified alpha-glucosidase from intestinal rat powder); assay: Intestinal alpha-glucosidase assay, maltose substrate (Glucose GO Kit)
In short: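 First step: 60 min, 37 °C, compound with partially purified rat intestinal alpha-glucosidase. Next, maltose or sucrose for 30 min at 37 °C, ended at 90 °C for 5 min. Glucose quantified enzymatically; concentration–inhibition data fitted 4-PL for IC50.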

[5] = target: rat sucrase (partially purified alpha-glucosidase from intestinal rat powder) (Rattus norvegicus, UniProt P23739); assay: Intestinal alpha-glucosidase assay, sucrose substrate (Glucose GO Kit)
rat sucrase (partially purified alpha-glucosidase from intestinal rat powder), sequence (P23739 whole entry): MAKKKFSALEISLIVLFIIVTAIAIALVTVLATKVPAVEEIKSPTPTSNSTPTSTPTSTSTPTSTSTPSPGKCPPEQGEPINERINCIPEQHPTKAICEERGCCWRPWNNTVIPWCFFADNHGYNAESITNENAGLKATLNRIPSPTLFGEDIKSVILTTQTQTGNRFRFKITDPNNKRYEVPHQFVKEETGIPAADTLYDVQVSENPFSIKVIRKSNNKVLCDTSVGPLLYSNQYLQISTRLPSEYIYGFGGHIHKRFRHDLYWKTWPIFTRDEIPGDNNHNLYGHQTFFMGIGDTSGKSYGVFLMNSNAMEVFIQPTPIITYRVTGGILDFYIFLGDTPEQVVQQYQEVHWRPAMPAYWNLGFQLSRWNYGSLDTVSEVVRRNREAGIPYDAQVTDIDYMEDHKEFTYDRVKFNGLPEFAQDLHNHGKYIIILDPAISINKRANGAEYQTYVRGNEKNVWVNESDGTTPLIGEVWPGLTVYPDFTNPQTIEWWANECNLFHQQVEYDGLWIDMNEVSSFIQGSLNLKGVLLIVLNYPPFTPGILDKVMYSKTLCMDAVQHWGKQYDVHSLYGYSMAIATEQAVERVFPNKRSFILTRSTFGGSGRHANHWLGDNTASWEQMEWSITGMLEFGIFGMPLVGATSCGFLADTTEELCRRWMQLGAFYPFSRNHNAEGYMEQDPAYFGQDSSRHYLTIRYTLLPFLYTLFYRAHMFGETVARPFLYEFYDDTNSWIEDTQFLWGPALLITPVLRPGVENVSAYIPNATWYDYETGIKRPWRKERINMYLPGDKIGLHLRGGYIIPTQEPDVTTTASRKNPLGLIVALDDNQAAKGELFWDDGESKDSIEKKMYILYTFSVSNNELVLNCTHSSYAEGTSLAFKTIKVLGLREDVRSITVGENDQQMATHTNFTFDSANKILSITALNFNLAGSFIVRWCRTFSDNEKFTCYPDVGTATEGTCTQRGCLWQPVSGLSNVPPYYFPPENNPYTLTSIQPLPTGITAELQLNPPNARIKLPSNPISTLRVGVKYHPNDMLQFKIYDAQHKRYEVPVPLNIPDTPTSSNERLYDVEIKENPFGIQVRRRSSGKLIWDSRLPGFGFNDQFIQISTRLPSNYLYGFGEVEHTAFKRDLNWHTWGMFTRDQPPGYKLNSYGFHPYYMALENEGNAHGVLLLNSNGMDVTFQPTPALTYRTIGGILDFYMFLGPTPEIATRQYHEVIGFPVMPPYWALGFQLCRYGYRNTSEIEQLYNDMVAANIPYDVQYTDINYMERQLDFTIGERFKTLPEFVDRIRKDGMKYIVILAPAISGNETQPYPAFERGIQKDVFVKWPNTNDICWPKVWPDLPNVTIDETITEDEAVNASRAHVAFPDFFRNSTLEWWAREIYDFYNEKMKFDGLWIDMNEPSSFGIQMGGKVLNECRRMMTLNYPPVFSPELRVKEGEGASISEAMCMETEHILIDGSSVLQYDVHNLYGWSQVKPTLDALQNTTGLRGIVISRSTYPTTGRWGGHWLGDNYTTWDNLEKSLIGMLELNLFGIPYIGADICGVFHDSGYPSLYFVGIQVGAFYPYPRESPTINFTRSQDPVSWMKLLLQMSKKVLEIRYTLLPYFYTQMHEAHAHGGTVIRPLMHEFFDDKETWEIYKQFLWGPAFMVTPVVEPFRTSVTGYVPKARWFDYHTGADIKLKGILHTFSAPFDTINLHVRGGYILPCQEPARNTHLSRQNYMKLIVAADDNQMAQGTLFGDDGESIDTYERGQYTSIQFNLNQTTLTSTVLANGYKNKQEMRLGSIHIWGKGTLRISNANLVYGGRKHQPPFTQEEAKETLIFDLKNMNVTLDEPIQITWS
In short: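 Rat intestinal enzyme prep + test cpd dilutions, 60 min 37 °C; add maltose (maltase) or sucrose (sucrase), 30 min 37 °C; stop 90 °C 5 min. Glucose readout (glucose oxidase kit). IC50 from 4-PL fit of % inhibition vs conc.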

SMILES	IC50 [1]	IC50 [2]	IC50 [3]	IC50 [4]	IC50 [5]
CN(C)Cc1ccc(NCCCCCCN2C[C@H](O)[C@@H](O)[C@H](O)[C@H]2CO)c(C(=O)O)c1 [Compound 1245, 5-[(dimethylamino)methyl]-2-({6-[(2R,3R,4R,5S)-3,4,5-trihydroxy-2-(hydroxymethyl)piperidin-1-yl]hexyl}amino)benzoic acid]	51 nM	392 nM	56000 nM	32 nM	120 nM
N#Cc1cc(Br)cc(NCc2ccc(CN3C[C@H](O)[C@@H](O)[C@H](O)[C@H]3CO)cc2)c1 [Compound 1026, 3-bromo-5-{[(4-{[(2R,3R,4R,5S)-3,4,5-trihydroxy-2-(hydroxymethyl)piperidin-1-yl]methyl}phenyl)methyl]amino}benzonitrile]	< 1 nM	64 nM	37900 nM	< 1 nM	< 1 nM
[N-]=[N+]=Nc1ccc(NCCNC(=O)NCCN2C[C@H](O)[C@@H](O)[C@H](O)[C@H]2CO)c([N+](=O)[O-])c1 [Compound 1276, 1-{2-[(4-azido-2-nitrophenyl)amino]ethyl}-3-{2-[(2R,3R,4R,5S)-3,4,5-trihydroxy-2-(hydroxymethyl)piperidin-1-yl]ethyl}urea]	39 nM	253 nM	62 nM	49 nM	316 nM
CC#Cc1ccc(NCCCCCCN2C[C@H](O)[C@@H](O)[C@H](O)[C@H]2CO)c([N+](=O)[O-])c1 [Compound 1290, (2R,3R,4R,5S)-2-(hydroxymethyl)-1-(6-{[2-nitro-4-(prop-1-yn-1-yl)phenyl]amino}hexyl)piperidine-3,4,5-triol]	1.2 nM	21 nM	175 nM	< 10 nM	< 10 nM
Cc1cc(NCc2cnc(CN3C[C@H](O)[C@@H](O)[C@H](O)[C@H]3CO)cn2)cc(-c2ccc[nH]2)c1 [Compound 1330, (2R,3R,4R,5S)-2-(hydroxymethyl)-1-{[5-({[3-methyl-5-(1H-pyrrol-2-yl)phenyl]amino}methyl)pyrazin-2-yl]methyl}piperidine-3,4,5-triol]	14400 nM	90 nM	13200 nM	577 nM	595 nM
OC[C@@H]1[C@@H](O)[C@H](O)[C@@H](O)CN1CCCCCCNc1ccc(-c2ncccn2)cc1C(F)(F)F [Compound 1258, (2R,3R,4R,5S)-2-(hydroxymethyl)-1-(6-{[4-(pyrimidin-2-yl)-2-(trifluoromethyl)phenyl]amino}hexyl)piperidine-3,4,5-triol]	31 nM	32 nM	1350 nM	19 nM	108 nM
[N-]=[N+]=Nc1ccc(NCCc2cccc(CCN3C[C@H](O)[C@@H](O)[C@H](O)[C@H]3CO)c2)c([N+](=O)[O-])c1 [Compound 1240, (2R,3R,4R,5S)-1-[2-(3-{2-[(4-azido-2-nitrophenyl)amino]ethyl}phenyl)ethyl]-2-(hydroxymethyl)piperidine-3,4,5-triol]	45 nM	12800 nM	496 nM	701 nM	318 nM
COCCCCCN(CCCNc1ccc(N=[N+]=[N-])cc1[N+](=O)[O-])CCCN1C[C@H](O)[C@@H](O)[C@H](O)[C@H]1CO [Compound 1221, (2R,3R,4R,5S)-1-[3-({3-[(4-azido-2-nitrophenyl)amino]propyl}(5-methoxypentyl)amino)propyl]-2-(hydroxymethyl)piperidine-3,4,5-triol]	220 nM	4510 nM	57 nM	233 nM	424 nM
[N-]=[N+]=Nc1ccc(NCCOC(=O)NCCN2C[C@H](O)[C@@H](O)[C@H](O)[C@H]2CO)c([N+](=O)[O-])c1 [Compound 1268, 2-[(4-azido-2-nitrophenyl)amino]ethyl N-{2-[(2R,3R,4R,5S)-3,4,5-trihydroxy-2-(hydroxymethyl)piperidin-1-yl]ethyl}carbamate]	32 nM	617 nM	1520 nM	68 nM	363 nM
COc1cc(NCCCCCCN2C[C@H](O)[C@@H](O)[C@H](O)[C@H]2CO)cc(-c2ncco2)c1 [Compound 1216, (2R,3R,4R,5S)-2-(hydroxymethyl)-1-(6-{[3-methoxy-5-(1,3-oxazol-2-yl)phenyl]amino}hexyl)piperidine-3,4,5-triol]	2 nM	37 nM	2140 nM	8 nM	796 nM
[N-]=[N+]=Nc1ccc(NCCS(=O)(=O)CCCN2C[C@H](O)[C@@H](O)[C@H](O)[C@H]2CO)c([N+](=O)[O-])c1 [Compound 1274, (2R,3R,4R,5S)-1-(3-{2-[(4-azido-2-nitrophenyl)amino]ethane-sulfonyl}propyl)-2-(hydroxymethyl)piperidine-3,4,5-triol]	48 nM	136 nM	2990 nM	151 nM	738 nM
OC[C@@H]1[C@@H](O)[C@H](O)[C@@H](O)CN1CCCCCCNc1ccc(-c2ncccn2)cc1F [Compound 1229, (2R,3R,4R,5S)-1-(6-{[2-fluoro-4-(pyrimidin-2-yl)phenyl]amino}hexyl)-2-(hydroxymethyl)piperidine-3,4,5-triol]	37 nM	81 nM	959 nM	24 nM	70 nM
Nc1ccc(NCCCCCCCCN2C[C@H](O)[C@@H](O)[C@H](O)[C@H]2CO)c([N+](=O)[O-])c1Cl [Compound 1277, (2R,3R,4R,5S)-1-{8-[(4-amino-3-chloro-2-nitrophenyl)amino]octyl} 2-(hydroxymethyl)piperidine-3,4,5-triol]	< 1 nM	< 10 nM	< 10 nM	52 nM	133 nM
Cc1cc(NCc2cccc(CN3C[C@H](O)[C@@H](O)[C@H](O)[C@H]3CO)c2)cc(-c2ccc[nH]2)c1 [Compound 1033, (2R,3R,4R,5S)-2-(hydroxymethyl)-1-{[3-({[3-methyl-5-(1H-pyrrol-2-yl)phenyl]amino}methyl)phenyl]methyl}piperidine-3,4,5-triol]	> 100000 nM	5370 nM	> 100000 nM	37 nM	34 nM
[N-]=[N+]=Nc1ccc(NCCC(O)C(O)CCN2C[C@H](O)[C@@H](O)[C@H](O)[C@H]2CO)c([N+](=O)[O-])c1 (stereo partly drawn) [Compound 1270, (2R,3R,4R,5S)-1-{6-[(4-azido-2-nitrophenyl)amino]-3,4-dihydroxy-hexyl}-2-(hydroxymethyl)piperidine-3,4,5-triol]	46 nM	190 nM	81 nM	57 nM	350 nM
Cc1cc(NCc2cccc(CN3C[C@H](O)[C@@H](O)[C@H](O)[C@H]3CO)c2)cc(-c2cccnn2)c1 [Compound 1034, (2R,3R,4R,5S)-2-(hydroxymethyl)-1-{[3-({[3-methyl-5-(pyridazin-3-yl)phenyl]amino}methyl)phenyl]methyl}piperidine-3,4,5-triol]	10000 nM	2710 nM	91900 nM	33 nM	57 nM
COc1ccc(CCCCCCCN2C[C@H](O)[C@@H](O)[C@H](O)[C@H]2CO)cc1 [Compound 1309, (2R,3R,4R,5S)-2-(hydroxymethyl)-1-[7-(4-methoxyphenyl)heptyl]piperidine-3,4,5-triol]	37 nM	263 nM	2340 nM	22 nM	155 nM
[N-]=[N+]=Nc1ccc(NCCOCCN2C[C@H](O)[C@@H](O)[C@H](O)[C@H]2CO)c([N+](=O)[O-])c1 [Compound 1255, (2R,3R,4R,5S)-1-(2-{2-[(4-azido-2-nitrophenyl)amino]ethoxy}ethyl)-2-(hydroxymethyl)piperidine-3,4,5-triol]	29 nM	228 nM	3080 nM	33 nM	56 nM
N#Cc1cc(Br)cc(NCc2cccc(CN3C[C@H](O)[C@@H](O)[C@H](O)[C@H]3CO)c2)c1 [Compound 1023, 3-bromo-5-{[(3-{[(2R,3R,4R,5S)-3,4,5-trihydroxy-2-(hydroxymethyl)piperidin-1-yl]methyl}phenyl)methyl]amino}benzonitrile]	42600 nM	1440 nM	91100 nM	30 nM	66 nM

Reference: US20250197372A1 (priority 2020, published 2025)
